Data set [1] concerns the target Epidermal growth factor receptor (Homo sapiens, UniProt P00533). The data set can be described thus: Inhibition of epidermal growth factor receptor kinase activity […] of ATP.
Data set [2] concerns the target Vascular endothelial growth factor receptor 2 (Homo sapiens, UniProt P35968). The data set can be described thus: Inhibition of vascular endothelial growth factor receptor 2 kinase activity […].
The target in data set [3] is Vascular endothelial growth factor receptor (Homo sapiens, UniProt P17948+P35916+P35968). The data set can be described thus: Inhibition of human endothelial cell growth stimulate by vascular endothelial growth factor.
The target in data set [4] is Fibroblast growth factor receptor 1 (Homo sapiens, UniProt P11362).
Description: Inhibition fibroblast growth factor receptor TK kinase activity at a concentration of 2 uM
Data set [5] concerns the target Vascular endothelial growth factor receptor 1 (Homo sapiens, UniProt P17948). The data set is described as follows: Inhibition of fms-like tyrosine kinase receptor (Flt-1) kinase activity […] of ATP.
The next data set relates to HUVEC. The data set is described as follows: Inhibition of basal unstimulated growth of human endothelial cell. It counts as functional, cell-based.
Data set [6] can be described thus: Plasma levels following administration of 100 mg/Kg perorally and concentration in plasma 24 hr after administration. It counts as ADME, cell-free. The settings on record: po, read-out: Plasma level.
Data set [7] is described as follows: Plasma levels following administration of 100 mg/Kg perorally and concentration in plasma 6 hr after administration. Format: ADME, cell-free. The settings on record: po, read-out: Plasma level.
The nature of data set [8]: pKa value at a pH of […].value ranges from […]-[…]. It counts as physicochemical. The settings on record: pH 7.4.
Data set [9] in a line: solubility was determined using free base at pH 7. Format: physicochemical. The settings on record: buffer.
Another data set in a line: physchem. The settings on record: octanol/water, pH 7.4.
Data set [10] in a line: Plasma levels following administration of 50 mg/Kg perorally and concentration in plasma 24 hr after administration. Format: ADME, cell-free. The settings on record: po, read-out: Plasma level.
A short description of data set [11]: Plasma levels following administration of 50 mg/Kg perorally and concentration in plasma 6 hr after administration. It counts as ADME, cell-free. The settings on record: po, read-out: Plasma level.
The species named for the next data set is Rattus norvegicus. The data set is described as follows: Binding affinity to serum protein in rat. It counts as functional.
The species entered for the next data set is Mus musculus. The data set can be described thus: Binding affinity of serum protein in mouse. Format: functional, organism-based.

Bounds are passed on as bounds.

As a reminder, the IC50 is the point on the concentration scale where inhibition reaches its midpoint. Higher therefore signals weaker potency in that assay. As a reminder, the pKa is the negative logarithm of the acid dissociation constant. Lower therefore signals a group that gives up its proton readily. What is called solubility is the dissolved amount per volume that the medium holds. A high value points to much dissolved substance. The term logD denotes lipophilicity at a set pH, counting ionised and neutral species. Read a high logD as higher lipophilicity.

Chain of Epidermal growth factor receptor (P00533 whole entry): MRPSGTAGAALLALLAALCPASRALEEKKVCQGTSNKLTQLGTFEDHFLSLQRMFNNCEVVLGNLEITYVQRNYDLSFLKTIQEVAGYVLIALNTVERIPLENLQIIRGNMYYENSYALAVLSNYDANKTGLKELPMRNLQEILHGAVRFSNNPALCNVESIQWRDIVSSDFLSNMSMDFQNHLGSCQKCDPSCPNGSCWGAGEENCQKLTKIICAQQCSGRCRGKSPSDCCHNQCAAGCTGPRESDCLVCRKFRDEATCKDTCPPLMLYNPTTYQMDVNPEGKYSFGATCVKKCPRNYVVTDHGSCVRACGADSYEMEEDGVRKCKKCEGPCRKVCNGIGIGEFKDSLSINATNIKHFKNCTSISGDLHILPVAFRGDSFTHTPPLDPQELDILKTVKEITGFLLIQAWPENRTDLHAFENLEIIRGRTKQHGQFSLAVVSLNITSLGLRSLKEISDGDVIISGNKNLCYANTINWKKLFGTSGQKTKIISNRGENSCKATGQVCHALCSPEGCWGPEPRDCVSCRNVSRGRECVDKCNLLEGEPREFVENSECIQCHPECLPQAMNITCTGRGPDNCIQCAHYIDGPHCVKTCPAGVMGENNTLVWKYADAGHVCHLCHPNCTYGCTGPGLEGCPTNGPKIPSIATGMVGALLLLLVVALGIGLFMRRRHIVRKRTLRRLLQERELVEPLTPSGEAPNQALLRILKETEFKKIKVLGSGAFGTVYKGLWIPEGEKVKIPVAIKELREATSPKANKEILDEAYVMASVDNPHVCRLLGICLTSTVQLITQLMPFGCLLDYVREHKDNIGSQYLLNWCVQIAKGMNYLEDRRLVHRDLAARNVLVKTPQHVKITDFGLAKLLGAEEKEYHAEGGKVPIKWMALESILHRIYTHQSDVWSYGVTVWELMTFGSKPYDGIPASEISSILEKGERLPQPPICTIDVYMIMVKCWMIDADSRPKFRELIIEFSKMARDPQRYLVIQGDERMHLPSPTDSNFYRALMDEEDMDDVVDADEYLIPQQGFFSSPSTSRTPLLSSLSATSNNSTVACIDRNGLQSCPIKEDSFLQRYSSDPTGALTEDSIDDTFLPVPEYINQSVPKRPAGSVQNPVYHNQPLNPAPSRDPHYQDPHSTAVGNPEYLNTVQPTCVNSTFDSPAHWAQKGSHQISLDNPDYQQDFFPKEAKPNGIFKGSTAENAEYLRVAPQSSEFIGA
Chain of Fibroblast growth factor receptor 1 (P11362 whole entry): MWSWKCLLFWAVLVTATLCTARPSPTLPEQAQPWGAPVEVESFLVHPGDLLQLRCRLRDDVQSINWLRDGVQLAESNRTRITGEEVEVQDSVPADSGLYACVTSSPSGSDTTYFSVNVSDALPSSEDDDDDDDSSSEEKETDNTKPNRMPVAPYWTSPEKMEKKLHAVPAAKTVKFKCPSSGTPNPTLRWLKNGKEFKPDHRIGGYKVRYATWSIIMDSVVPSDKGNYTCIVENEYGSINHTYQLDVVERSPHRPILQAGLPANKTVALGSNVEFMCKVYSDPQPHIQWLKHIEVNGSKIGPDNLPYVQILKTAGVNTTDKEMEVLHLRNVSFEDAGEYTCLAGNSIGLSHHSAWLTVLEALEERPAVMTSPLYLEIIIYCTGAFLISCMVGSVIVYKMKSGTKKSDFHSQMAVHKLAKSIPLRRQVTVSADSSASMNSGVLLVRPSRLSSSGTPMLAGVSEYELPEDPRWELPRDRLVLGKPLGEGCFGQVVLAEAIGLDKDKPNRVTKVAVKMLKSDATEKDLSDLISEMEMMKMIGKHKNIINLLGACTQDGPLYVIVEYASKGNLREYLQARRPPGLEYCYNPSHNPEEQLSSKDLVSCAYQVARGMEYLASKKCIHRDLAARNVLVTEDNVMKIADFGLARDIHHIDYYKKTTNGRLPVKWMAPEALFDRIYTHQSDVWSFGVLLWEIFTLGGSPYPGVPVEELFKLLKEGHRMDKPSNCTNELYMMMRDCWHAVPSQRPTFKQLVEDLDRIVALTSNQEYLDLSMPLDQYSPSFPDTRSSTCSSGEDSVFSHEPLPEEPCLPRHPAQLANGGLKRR
Chain of Vascular endothelial growth factor receptor 2 (P35968 whole entry): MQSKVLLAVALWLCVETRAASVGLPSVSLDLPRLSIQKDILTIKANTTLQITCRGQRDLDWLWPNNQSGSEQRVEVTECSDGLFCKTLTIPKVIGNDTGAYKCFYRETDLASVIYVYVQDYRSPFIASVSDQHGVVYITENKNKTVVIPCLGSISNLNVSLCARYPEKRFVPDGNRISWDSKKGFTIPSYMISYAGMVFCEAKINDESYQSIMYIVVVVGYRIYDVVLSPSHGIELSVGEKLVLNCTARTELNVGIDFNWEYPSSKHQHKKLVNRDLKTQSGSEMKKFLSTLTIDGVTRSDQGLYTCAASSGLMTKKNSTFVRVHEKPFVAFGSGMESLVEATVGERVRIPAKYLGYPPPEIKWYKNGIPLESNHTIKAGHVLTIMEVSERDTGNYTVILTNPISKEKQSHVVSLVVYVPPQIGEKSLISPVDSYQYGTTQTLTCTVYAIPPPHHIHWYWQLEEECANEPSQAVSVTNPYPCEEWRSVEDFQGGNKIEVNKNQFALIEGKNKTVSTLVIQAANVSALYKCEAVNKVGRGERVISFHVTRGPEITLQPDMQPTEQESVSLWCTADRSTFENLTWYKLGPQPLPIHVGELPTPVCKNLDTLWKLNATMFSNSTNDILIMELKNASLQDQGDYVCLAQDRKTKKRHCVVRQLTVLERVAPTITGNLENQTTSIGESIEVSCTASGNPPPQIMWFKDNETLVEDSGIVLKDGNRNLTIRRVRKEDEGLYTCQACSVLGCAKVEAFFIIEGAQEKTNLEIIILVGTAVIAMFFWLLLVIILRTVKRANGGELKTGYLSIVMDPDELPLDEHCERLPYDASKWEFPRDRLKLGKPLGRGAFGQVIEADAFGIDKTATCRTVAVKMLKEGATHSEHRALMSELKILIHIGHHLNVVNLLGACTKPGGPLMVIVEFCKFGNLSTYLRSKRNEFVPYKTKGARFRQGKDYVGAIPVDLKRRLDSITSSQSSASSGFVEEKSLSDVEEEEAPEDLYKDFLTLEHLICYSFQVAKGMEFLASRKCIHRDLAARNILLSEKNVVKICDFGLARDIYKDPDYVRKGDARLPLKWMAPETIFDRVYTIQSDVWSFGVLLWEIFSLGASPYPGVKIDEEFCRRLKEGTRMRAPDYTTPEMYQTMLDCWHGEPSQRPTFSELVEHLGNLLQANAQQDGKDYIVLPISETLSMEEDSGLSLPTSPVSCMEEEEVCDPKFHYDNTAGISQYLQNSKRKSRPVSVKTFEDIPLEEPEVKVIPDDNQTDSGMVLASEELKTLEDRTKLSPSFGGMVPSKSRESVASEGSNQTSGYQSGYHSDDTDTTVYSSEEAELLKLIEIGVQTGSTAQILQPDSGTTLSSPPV
Chain of Vascular endothelial growth factor receptor 1 (P17948 whole entry): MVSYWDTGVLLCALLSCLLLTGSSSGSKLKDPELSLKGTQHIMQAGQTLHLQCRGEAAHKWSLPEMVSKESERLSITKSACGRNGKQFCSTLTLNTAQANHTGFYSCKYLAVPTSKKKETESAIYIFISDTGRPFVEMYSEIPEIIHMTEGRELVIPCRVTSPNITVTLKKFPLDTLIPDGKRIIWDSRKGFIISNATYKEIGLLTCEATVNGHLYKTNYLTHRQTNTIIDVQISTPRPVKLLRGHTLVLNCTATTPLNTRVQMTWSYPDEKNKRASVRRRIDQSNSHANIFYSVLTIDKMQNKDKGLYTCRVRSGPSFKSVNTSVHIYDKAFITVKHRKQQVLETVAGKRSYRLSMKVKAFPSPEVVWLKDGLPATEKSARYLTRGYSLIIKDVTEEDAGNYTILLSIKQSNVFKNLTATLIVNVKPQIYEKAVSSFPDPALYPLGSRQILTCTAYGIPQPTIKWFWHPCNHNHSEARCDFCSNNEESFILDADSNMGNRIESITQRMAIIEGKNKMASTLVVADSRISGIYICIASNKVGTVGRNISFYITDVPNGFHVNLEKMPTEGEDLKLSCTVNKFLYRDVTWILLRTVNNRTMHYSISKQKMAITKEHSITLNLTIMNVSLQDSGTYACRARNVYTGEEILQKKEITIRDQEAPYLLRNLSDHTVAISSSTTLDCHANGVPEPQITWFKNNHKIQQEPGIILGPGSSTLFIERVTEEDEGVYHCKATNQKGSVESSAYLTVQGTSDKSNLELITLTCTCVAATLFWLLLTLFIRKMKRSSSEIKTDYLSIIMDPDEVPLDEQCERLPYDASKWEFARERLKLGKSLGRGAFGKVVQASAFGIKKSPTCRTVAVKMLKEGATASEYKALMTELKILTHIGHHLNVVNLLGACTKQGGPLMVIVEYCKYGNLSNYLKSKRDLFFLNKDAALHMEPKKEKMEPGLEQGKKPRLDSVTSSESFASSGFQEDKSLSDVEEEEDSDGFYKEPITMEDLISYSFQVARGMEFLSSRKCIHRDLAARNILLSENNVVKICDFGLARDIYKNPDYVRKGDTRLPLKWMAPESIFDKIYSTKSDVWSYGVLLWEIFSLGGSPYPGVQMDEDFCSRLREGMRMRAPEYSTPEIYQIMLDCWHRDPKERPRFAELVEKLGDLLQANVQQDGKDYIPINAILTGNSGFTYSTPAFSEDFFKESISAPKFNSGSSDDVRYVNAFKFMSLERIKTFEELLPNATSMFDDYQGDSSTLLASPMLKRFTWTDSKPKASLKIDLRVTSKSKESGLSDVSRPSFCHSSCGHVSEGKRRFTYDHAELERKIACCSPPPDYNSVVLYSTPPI

Regarding `COc1cc2c(Nc3ccc(C)cc3F)ncnc2cc1OCC1CCN(C)CC1`, the IC50 in [1] is 1000 nM; in data set [2], 25 nM; in data set [3] it was 65 nM; in [4], 13500 nM; in [5], 500 nM; in the data set with HUVEC, above 5000 nM.

Turning to `COc1cc2c(Nc3ccc(Cl)cc3F)ncnc2cc1OC/C=C/CN1CCCC1.Cl`, the IC50 in data set [1] was found to be 90 nM; in data set [2], 40 nM; in [3], 40 nM; in [4], 1900 nM; in [5], 750 nM; in the data set with HUVEC, 1000 nM.

`COc1cc2c(Nc3ccc(C#N)cc3F)ncnc2cc1OC/C=C/CN1CCCC1`: the IC50 in [1] came out at 800 nM; in data set [2] it was 230 nM; in data set [3], 500 nM; in data set [4], 19000 nM; in data set [5], 3900 nM; in the data set with HUVEC, 10000 nM.

Regarding `COc1cc2c(Nc3c(F)cc(Br)cc3F)ncnc2cc1OCC1CCNCC1`, the IC50 is 450 nM in [1]; 15 nM in data set [2]; 70 nM in data set [3]; 1900 nM in data set [4]; 800 nM in data set [5]; 3000 nM in the data set with HUVEC.

Take `COc1cc2c(Nc3ccc(Cl)cc3F)ncnc2cc1OCCN(C)c1ccncc1`: the half-maximal inhibitory concentration (IC50) came to 300 nM in data set [1], 200 nM in [3] and 5000 nM in the data set on HUVEC. Besides, the concentration at 24 h in data set [6] was 2000 nM. Moreover, in data set [7], the concentration at 6 h is 4600 nM.

Consider `COc1cc2c(Nc3cc(O)c(C)cc3F)ncnc2cc1OCC1CCN(C)CC1.Cl`, for which the half-inhibitory concentration (IC50) worked out at 300 nM in data set [1]; 7 nM in [2]; 30 nM in data set [3]; 1500 nM in data set [4]; 25 nM in [5]; 800 nM in the data set with HUVEC.

In the case of `COc1cc2c(Nc3ccc(Cl)cc3F)ncnc2cc1OCCCN1CCN(C)CC1.Cl`, the pKa in [8] worked out at 7.9. The IC50 in data set [1] amounted to 75 nM; in data set [2], 20 nM; in [3], 50 nM; in data set [4] it was 2100 nM; in data set [5] it was 600 nM; in the data set with HUVEC it was 5000 nM. Also, the concentration in solution in [9] (solubility) came to 60 µM. This compound registered a logD in the data set “physchem” of 2.4. For the same compound, the concentration at 24 h in data set [10] is 3000 nM. Moreover, the concentration at 6 h in [11] was determined as 5000 nM.

With `COc1cc2c(Nc3ccc(C)cc3F)ncnc2cc1OCC1CCNCC1`, the IC50 in data set [1] was 500 nM; in [2], 30 nM; in data set [3], 250 nM; in data set [4] it was 12300 nM; in [5], 700 nM; in the data set with HUVEC it was above 5000 nM.

Consider `COc1cc2c(Nc3c(F)cc(Br)cc3F)ncnc2cc1OCC1CCN(C)CC1`, for which the IC50 was 300 nM in data set [1]; 10 nM in data set [2]; 100 nM in [3]; 1500 nM in data set [4]; 500 nM in [5]; above 1000 nM in the data set on HUVEC.

For `COc1cc2c(Nc3ccc(Cl)cc3F)ncnc2cc1OCCN1CCOCC1`, the IC50 in [1] turned out to be 400 nM; in data set [3] it was 300 nM; with HUVEC, 5000 nM. Further, in data set [6], the concentration at 24 h is 500 nM. Also, the concentration at 6 h in data set [7] was found to be 12000 nM.

As for `COc1cc2c(Nc3c(F)cc(Cl)cc3F)ncnc2cc1OCC1CCN(C)CC1`, the IC50 in data set [2] was 25 nM; in data set [4], 1700 nM; in the data set with HUVEC, above 5000 nM.

Consider `COc1cc2c(Nc3ccc(Cl)cc3F)ncnc2cc1OC1CCN(C)CC1`, for which the results for the IC50 in [4] and in data set [5] were 50000 nM and 1500 nM, respectively.

For the compound `COc1cc2c(Nc3ccc(Cl)cc3F)ncnc2cc1OCCCN1CCCC1.Cl`, the IC50 is 30 nM in data set [2]; 8 nM in data set [3]; 4200 nM in data set [4]; 200 nM in data set [5]; 5000 nM in the data set with HUVEC.

In the case of `COc1cc2c(Nc3ccc(Cl)cc3F)ncnc2cc1OCCN1CCN(C)CC1`, the concentration for half-maximal inhibition (IC50) amounted to 200 nM in [1]; 30 nM in [2]; 100 nM in data set [3]; 8000 nM in data set [4]; 300 nM in data set [5]; 10000 nM in the data set on HUVEC.

On to `COc1cc2c(Nc3ccc(Cl)cc3F)ncnc2cc1OCC1CCN(C)CC1.Cl`, for which the IC50 in [2] was 15 nM; in data set [3] it was 50 nM; in data set [4], 4300 nM; in [5] it was 2000 nM; with HUVEC, 5000 nM.

Take `COc1cc2c(Nc3ccc(Cl)cc3F)ncnc2cc1OCCC1CCN(C)CC1`: the IC50 in data set [1] came out at 300 nM; in data set [2], 55 nM; in data set [3], 70 nM; in [4], 4100 nM; in data set [5] it was 500 nM; in the data set with HUVEC, 3000 nM.

For `COc1cc2c(Nc3ccc(Cl)cc3F)ncnc2cc1OC[C@@H]1CCCN(C)C1`, the IC50 was found to be 100 nM in data set [1]; 5 nM in data set [2]; 80 nM in data set [3]; 1800 nM in data set [4]; 700 nM in data set [5]; 5000 nM with HUVEC.

In the case of `COc1cc2/c(=N/c3ccc(Br)cc3F)nc[nH]c2cc1OCC1CCN(C)CC1`, the SPB is 90% in the data set listed under Rattus norvegicus and 96% in the data set listed under Mus musculus.

Consider `COCCOc1cc2ncnc(Nc3ccc(Cl)cc3F)c2cc1OC`, for which the half-maximal inhibitory concentration (IC50) came out at 100 nM in data set [1], 40 nM in data set [3] and 5000 nM in the data set with HUVEC. The concentration at 24 h in [6] was below 100 nM. In addition, in [7], the concentration at 6 h stood at 12000 nM.

Turning to `COc1cc2c(Nc3cc(O)c(Cl)cc3F)ncnc2cc1OCC1CCN(C)CC1.Cl`, the IC50 was found to be 100 nM in [1]; 8 nM in data set [2]; 3 nM in data set [3]; 900 nM in data set [4]; 20 nM in [5]; 500 nM in the data set on HUVEC.

With `COc1cc2c(Nc3ccc(Br)cc3F)ncnc2cc1OCCC1CCNCC1`, the 50% inhibitory concentration (IC50) worked out at 40 nM in data set [2], 2700 nM in [4] and 3000 nM with HUVEC.

For `COc1cc2c(Nc3ccc(Br)cc3F)ncnc2cc1OCCC1CCN(C)CC1`, the IC50 came to 6 nM in [2], 2100 nM in [4] and 3000 nM with HUVEC. For the same compound, the concentration at 24 h in data set [10] came out at 2000 nM. In addition, in data set [11], the concentration at 6 h came to 3000 nM.

Turning to `COc1cc2c(Nc3c(F)cc(Cl)cc3F)ncnc2cc1OCC1CCNCC1`, the IC50 was 500 nM in [1]; 40 nM in [2]; 100 nM in data set [3]; 2500 nM in [4]; 450 nM in [5]; above 1000 nM with HUVEC.

On to `COc1cc2c(Nc3ccc(Br)cc3F)ncnc2cc1OC/C=C/CN1CCCC1.Cl`, for which the IC50 in data set [1] was 100 nM; in data set [2], 8 nM; in [3] it was 30 nM; in data set [4], 2100 nM; in data set [5] it was 650 nM; in the data set with HUVEC it was 5000 nM.

Consider `COc1cc2c(Nc3ccc(Br)cc3F)ncnc2cc1OC[C@H]1CCCN(C)C1`, for which the concentration for half-maximal inhibition (IC50) in data set [2] came out at 10 nM; in data set [3], 40 nM; in [4] it was 5000 nM; in data set [5], 500 nM; with HUVEC it was 1000 nM.

Regarding `COc1cc2c(Nc3ccc(Br)cc3F)ncnc2cc1OC[C@@H]1CCCN(C)C1`, the IC50 in [2] came to 1 nM; in data set [3], 60 nM; in data set [4] it was 1800 nM; in [5], 500 nM; in the data set on HUVEC, 10000 nM. Also, in data set [10], the concentration at 24 h is 2500 nM. Also, the concentration at 6 h in data set [11] is 5500 nM.

For `COc1cc2c(Nc3ccc(Cl)cc3F)ncnc2cc1OCC1CCNCC1.Cl`, the IC50 in [1] was 300 nM; in [2] it was 50 nM; in data set [3], 60 nM; in [4], 5000 nM; in data set [5], 1000 nM; in the data set on HUVEC, 5000 nM.

Turning to `COc1cc2c(Nc3ccc(Br)cc3F)ncnc2cc1OCCCN1CCN(C)CC1.Cl`, the IC50 in data set [1] was 100 nM; in data set [2] it was 9 nM; in data set [3], 30 nM; in [4], 2000 nM; in data set [5], 550 nM; in the data set on HUVEC, above 1000 nM.
